US4777182A, “6-Amidino-2-naphthyl 4-guanidinobenzoate derivatives and pharmaceutical composition containing them” (Torii & Co., Ltd., priority 1984, dated 1988)

Columns and labels:
[1] = target: T1, Trypsin (Bos taurus, UniProt P00760); assay: Anti-trypsin activity (inhibition of TAME hydrolysis); format: biochemical; conditions: read-out: ID50, Trypsin
T1 sequence (P00760 24-246): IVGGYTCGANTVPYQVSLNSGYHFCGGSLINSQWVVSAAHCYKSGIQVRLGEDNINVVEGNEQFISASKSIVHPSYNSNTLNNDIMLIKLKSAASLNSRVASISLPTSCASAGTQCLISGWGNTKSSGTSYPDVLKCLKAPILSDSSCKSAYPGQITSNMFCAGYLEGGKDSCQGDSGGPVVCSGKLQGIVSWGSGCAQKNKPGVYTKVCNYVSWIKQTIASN

[2] = target: Plasmin (Homo sapiens, UniProt P00747); assay: Anti-plasmin activity (inhibition of TAME hydrolysis); format: biochemical; conditions: TAME hydrolysis; read-out: ID50, Plasmin
[3] = tested on: Kallikrein; assay: Anti-kallikrein activity (inhibition of TAME hydrolysis); format: biochemical; conditions: read-out: ID50, Kallikrein
[4] = target: Thrombin (Homo sapiens, UniProt P00734); assay: biochemical; conditions: TAME hydrolysis; read-out: ID50, Thrombin
[5] = target: T2, C1r (Homo sapiens, UniProt P00736); assay: Anti-C1r activity (inhibition of AAME hydrolysis); format: biochemical; conditions: for inhibition at 10 µM: at 1×10^-5 M, read-out: percent inhibition, C1r (figure in parentheses); for IC50: AAME hydrolysis, read-out: ID50, C1r
T2 sequence (P00736 18-463 limits assumed): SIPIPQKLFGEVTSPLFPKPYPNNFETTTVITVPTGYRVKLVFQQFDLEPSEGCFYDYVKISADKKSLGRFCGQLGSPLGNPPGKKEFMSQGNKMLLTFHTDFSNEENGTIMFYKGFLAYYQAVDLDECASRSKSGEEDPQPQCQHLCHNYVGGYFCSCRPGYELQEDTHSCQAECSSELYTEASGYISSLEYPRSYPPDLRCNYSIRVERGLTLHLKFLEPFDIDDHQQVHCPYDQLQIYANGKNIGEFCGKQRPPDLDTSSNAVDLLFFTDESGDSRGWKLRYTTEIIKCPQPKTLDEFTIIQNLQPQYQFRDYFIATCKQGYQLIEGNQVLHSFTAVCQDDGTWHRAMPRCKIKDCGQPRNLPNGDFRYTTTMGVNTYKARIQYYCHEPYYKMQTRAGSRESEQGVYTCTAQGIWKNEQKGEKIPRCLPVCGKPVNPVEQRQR
T2 sequence (P00736 464-705 limits assumed): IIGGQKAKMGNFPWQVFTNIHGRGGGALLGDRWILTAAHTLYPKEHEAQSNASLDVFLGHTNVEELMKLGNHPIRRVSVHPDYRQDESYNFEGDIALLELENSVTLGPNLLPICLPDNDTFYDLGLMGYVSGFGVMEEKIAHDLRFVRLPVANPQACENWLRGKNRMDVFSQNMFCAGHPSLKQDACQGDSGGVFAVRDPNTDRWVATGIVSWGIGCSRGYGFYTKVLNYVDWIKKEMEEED
Procedure: The anti-C1 esterase (C1r, C1s) activity was determined according to the method of Okamura et al. [K. Okamura, M. Muramatsu and B. Fujii, Biochem. Biophys. Acta, 295, 252-257 (1973)]. (2) The inhibition of complement mediated hemolysis was determined according to the method of Baker et al. [B. R. Baker and E. H. Erickson, J. Med. Chem., 12, 408-414 (1969)]. The figures in Table 2 have the following meanings: C1r: […]

[6] = target: T3, C1s (Homo sapiens, UniProt P09871); assay: Anti-C1s activity (inhibition of ATEE hydrolysis); format: biochemical; conditions: read-out: ID50, C1s
T3 sequence (P09871 16-437 limits assumed): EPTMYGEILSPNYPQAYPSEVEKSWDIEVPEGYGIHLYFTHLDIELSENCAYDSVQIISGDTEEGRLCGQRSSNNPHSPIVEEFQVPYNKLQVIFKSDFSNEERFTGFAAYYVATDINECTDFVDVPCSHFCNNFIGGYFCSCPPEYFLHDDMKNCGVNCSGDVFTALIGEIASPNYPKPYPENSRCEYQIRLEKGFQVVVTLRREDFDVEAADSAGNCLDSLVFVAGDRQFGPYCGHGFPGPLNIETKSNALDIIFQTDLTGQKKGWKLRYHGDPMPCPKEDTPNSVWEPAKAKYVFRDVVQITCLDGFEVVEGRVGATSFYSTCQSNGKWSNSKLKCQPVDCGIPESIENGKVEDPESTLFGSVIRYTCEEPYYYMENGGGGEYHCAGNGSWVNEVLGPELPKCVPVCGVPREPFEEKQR
T3 sequence (P09871 438-688 limits assumed): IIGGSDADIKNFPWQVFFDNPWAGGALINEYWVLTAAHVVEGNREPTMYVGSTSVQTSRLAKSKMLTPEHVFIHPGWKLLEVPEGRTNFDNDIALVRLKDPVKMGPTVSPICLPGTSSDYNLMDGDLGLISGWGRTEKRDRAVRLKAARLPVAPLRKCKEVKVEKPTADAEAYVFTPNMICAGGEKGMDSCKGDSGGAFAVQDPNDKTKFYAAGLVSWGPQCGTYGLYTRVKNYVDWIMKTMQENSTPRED
Procedure: The anti-C1 esterase (C1r, C1s) activity was determined according to the method of Okamura et al. [K. Okamura, M. Muramatsu and B. Fujii, Biochem. Biophys. Acta, 295, 252-257 (1973)]. (2) The inhibition of complement mediated hemolysis was determined according to the method of Baker et al. [B. R. Baker and E. H. Erickson, J. Med. Chem., 12, 408-414 (1969)]. The figures in Table 2 have the following meanings:
C1s: Molar concentration of the test compound which inhibits 50% of the ability of C1s to hydrolyse ATEE (acetyltyrosin ethyl ester) (ID50).

[7] = tested on: complement mediated hemolysis; assay: Inhibition of complement mediated hemolysis; format: cell-based
Text: Therefore, when a known amount of complement admixed with a C1 esterase inhibitor is used, the hemolysis must be suppressed in proportion to the inhibitory activity.

Plasmin, sequence (P00747 97-580 limits assumed, species assumed): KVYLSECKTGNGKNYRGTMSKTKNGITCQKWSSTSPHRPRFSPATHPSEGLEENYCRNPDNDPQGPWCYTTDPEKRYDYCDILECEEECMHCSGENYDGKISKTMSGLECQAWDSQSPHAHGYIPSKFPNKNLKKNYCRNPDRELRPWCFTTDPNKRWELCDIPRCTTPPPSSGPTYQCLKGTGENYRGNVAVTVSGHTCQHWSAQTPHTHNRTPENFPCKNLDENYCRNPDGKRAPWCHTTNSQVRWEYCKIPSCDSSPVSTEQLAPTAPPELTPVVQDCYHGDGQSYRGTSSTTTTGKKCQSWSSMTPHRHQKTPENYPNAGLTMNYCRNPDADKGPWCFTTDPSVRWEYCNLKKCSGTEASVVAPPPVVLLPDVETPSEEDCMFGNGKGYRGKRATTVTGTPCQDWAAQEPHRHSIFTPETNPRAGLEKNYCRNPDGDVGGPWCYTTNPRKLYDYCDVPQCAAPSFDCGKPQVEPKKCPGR
Plasmin, sequence (P00747 581-810 limits assumed, species assumed): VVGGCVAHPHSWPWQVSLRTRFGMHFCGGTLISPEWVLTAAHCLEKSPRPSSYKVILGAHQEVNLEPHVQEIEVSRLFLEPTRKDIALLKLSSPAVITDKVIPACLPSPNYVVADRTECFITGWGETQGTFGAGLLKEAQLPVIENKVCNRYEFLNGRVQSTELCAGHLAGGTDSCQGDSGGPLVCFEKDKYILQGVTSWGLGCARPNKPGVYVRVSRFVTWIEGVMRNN

SMILES	IC50 [1] [nM]	IC50 [2] [nM]	IC50 [3] [nM]	IC50 [4] [nM]	inhibition at 10 µM [5] [%]	IC50 [6] [nM]	Inhibition of complement mediated hemolysis (%) ([7]; 1 × 10^-5)	Inhibition of complement mediated hemolysis (%) ([7]; 1 × 10^-6)	Inhibition of complement mediated hemolysis (%) ([7]; 1 × 10^-7)	IC50 [5] [nM]
CN1CCNC1=Nc1ccc(C(=O)Oc2ccc3cc(C(=N)N)ccc3c2)cc1 [compound 3]	300	1000	600	800	38	300	93	25	0	
CC1CNC(Nc2ccc(C(=O)Oc3ccc4cc(C(=N)N)ccc4c3)cc2)=N1 (stereo not shown) [compound 4]	3000	1000	400	2000		400	100	96	48	10000
N=C(N)c1ccc2cc(OC(=O)c3ccc(NC4=NCCCN4)cc3)ccc2c1 [compound 5]	6000	1000	500	2000	41	300	98	83	5	
N=C(N)c1ccc2cc(OC(=O)c3ccc(NC4=NC5CCCCC5N4)cc3)ccc2c1 (stereo not shown) [compound 6]	2000	3000	900	2000		400	100	100	75	9000
N=C(N)c1ccc2cc(OC(=O)c3ccc(Nc4ncc[nH]4)cc3)ccc2c1 [compound 7]	600	5000	4000	6000		300	96	46	4	3000
CNC(=N)Nc1ccc(C(=O)Oc2ccc3cc(C(=N)N)ccc3c2)cc1 [compound 8]	4000	3000	3000	60	47	2000	100	93	34	
CN(C)C(=N)Nc1ccc(C(=O)Oc2ccc3cc(C(=N)N)ccc3c2)cc1 [compound 9]	6000	2000	900	600	41	400	100	68	8	
CCNC(=N)Nc1ccc(C(=O)Oc2ccc3cc(C(=N)N)ccc3c2)cc1 [compound 10]	2000	5000	400	6000	48	800	100	86	20	
CCNC(=NC)Nc1ccc(C(=O)Oc2ccc3cc(C(=N)N)ccc3c2)cc1 [compound 11]					24	200	100	57	0	
CCN=C(NCC)Nc1ccc(C(=O)Oc2ccc3cc(C(=N)N)ccc3c2)cc1 [compound 12]					24	80	100	59	0	
CCCCNC(=N)Nc1ccc(C(=O)Oc2ccc3cc(C(=N)N)ccc3c2)cc1 [compound 13]	2000	500	900	1000	46	500	100	78	3	
